Data published in patent US20190388349A1, “NON-TOXIC VEHICLE TO SOLUBILIZE, DELIVER, AND OBTAIN BIOLOGICAL ACTIVITY OF STEROID HORMONES AT CELL, TISSUE, AND ORGAN TARGETS, IN VITRO AND IN VIVO” (Government of the United States as Represented by the …, priority 2017, published 2019).

Assays:
[1] = system: 293T cells; experiment: Biological function (phenotype, mobile cells) in 293T cells; assay type: cell-based, human; conditions: for mobile cells / mobile elements / processes (photograph): vehicle PEG 300 with LIPOFECTAMINE, 25 μM β-AED, 5 nM E2
Procedure: A non-toxic vehicle for administration of androstene hormones according to embodiments of the present invention was prepared from a first solution and a second solution. The first solution, comprising liposomal formulation, was placed in PEG 300 to a concentration of 5% and heated in a sonicating water bath to about 45° C. The second solution, comprising a selected hormone (one or more of 5Δ-androsten-3β, 17α-diol, 5Δ-androsten-3β, 17β-diol, or 5Δ-androsten-3β,7β,17β-triol), was placed in PEG 300 and heated in a sonicating water bath to about 45° C. The first and second solutions were then combine and stirred until dissolved.
Biological function was tested in 293T cells, which is a human embryonic cell line transformed with Large T antigen […] SV40. This hypotriploid (polyploid) cell line is particularly useful in such transformation studies and has very distinct phenotypes when grown. All androstene hormone treatment applications were at concentrations of 25 μM.

[2] = system: MCF-7 breast cancer cells; experiment: Cell death and cell growth in MCF-7 breast cancer cell cultures; assay type: cell-based; conditions: 5 nM E2; for cell growth / cell density (microscopic photograph): MCF-7 grown for 5 days, 25 μM androstene hormone, PEG 300 with 5% LIPOFECTAMINE
Procedure: (§1) Hormone dependent, noninvasive, epithelial phenotype (ER/PR positive MCF-7 breast cancer cells) and hormone independent, invasive, mesenchymal phenotype (ER/PR negative MDA-MB-231 breast cancer cell) cell suspensions were acquired and prepared in complete medium (DMEM/F12, 10% FBS, 1% penicillin/streptomycin (Gibco)). Cellular concentration was adjusted to 2×10^5 cells/mL.
(§2) Androstene hormone solutions according to embodiments of the present invention were prepared from a first solution and a second solution. For the first solution, 3.0 mg of β-AED or β-AET was added to warm PEG 300 to prepare 50 mM stock. For the second solution, 10 μL of LIPOFECTAMINE (3:1 DOSPA: DOPE) was introduced to 100 μL of PEG 300, mixed, and incubated in a water bath at 42° C. for 30 min. The first and second solutions were then mixed in a sonicator water bath at 42° C. for 1 hr. The final concentration was 50 mM β-AED (or AET, as used).
(§3) A β-estradiol solution was also prepared by adding 2.7 mg of β-estradiol to 200 μL warmed PEG 300 with LIPOFECTAMINE and then further diluted 1:1000 with PEG-300. The final concentration was 50 μM.
A diluted β-AED (or β-AET) solution was prepared with complete medium at a final concentration of 50 μM (1:1000 dilute of 50 mM). Likewise, a diluted β-E2 solution was prepared with complete medium at a final concentration of 10 nM (1:5000 dilute of 50 μM).
Using a 24-well plate, mixtures of 0.5 mL of cells per well with 0.5 mL of medium diluted hormone vehicle. Cell cultures were maintained at 90% humidity, 7% CO2, and 37° C.

[3] = system: MDA-MB-231 breast cancer cell; experiment: Cell death in MDA-MB-231 breast cancer cell cultures; assay type: cell-based; conditions: 25 μM β-AED, 25 μM β-AET, 5 nM E2; PEG 300 with LIPOFECTAMINE vehicle
Procedure: as §1, §2, §3
A diluted β-AED (or β-AET) solution was prepared with complete medium at a final concentration of 50 μM (1:1000 dilute of 50 mM). Likewise, a diluted β-E2 solution was prepared with complete medium at a final concentration of 10 nM (1:5000 dilute of 50 μM). […]

[4] = vehicle PEG 300 only, androstene hormone 25 μM

SMILES | mobile cells / cell processes (photograph) [1, 4] | mobile cells / mobile elements / processes (photograph) [1] | MCF7 Cell Death Amount ([2]; 25 μM β-AED, 25 μM β-AET, PEG 300 with LIPOFECTAMINE vehicle) | cell growth / cell density (microscopic photograph) [2] | MDA-MB-231 Cell Death Amount [3] | cell islands (photograph) [1, 4]
C[C@]12CC[C@@H]3c4ccc(O)cc4CC[C@H]3[C@@H]1CC[C@@H]2O [E2, 17β-estradiol] | many more cell processes | many large islands with mobile processes, small islands with mobile process, and mobile cells forming interconnections with other elements | Not observed | thick and similar to the cell growth of FIGS. 14 and 16 | Not observed | 
C[C@]12CC[C@H]3[C@@H](CC=C4C[C@@H](O)CC[C@@]43C)[C@@H]1CC[C@@H]2O [β-AED, androst-5-ene-3β,17β-diol] | significant reduction in mobile cells | drastic decrease in, or morphological change, in mobile elements |  | areas of decreased density |  | larger
C[C@]12CC[C@H]3[C@@H]([C@@H](O)C=C4C[C@@H](O)CC[C@@]43C)[C@@H]1CC[C@@H]2O [β-AET, 5-androstene-3β,7β,17β-triol] |  |  |  | thick and similar to the cell growth of FIG. 14 |  | 
